Results: patent US12522615B2, “Macrocyclic compounds and derivatives as EGFR inhibitors” (Boehringer Ingelheim International GmbH, priority 2019, dated 2026)
pIC50: −log10 of the molar value.

Biological target: EGFR del19 T790M C797S (Homo sapiens, UniProt P00533, C797S/T790M, form not given)
Test: pEGFR assay: phosphorylation of EGFR at Tyr1068 in Ba/F3 cells (AlphaScreen Surefire)
Type: cell-based
Details: 4 h
Protocol: Transduced cells were selected using puromycin. Following selection, IL-3 was withdrawn and IL-3 independent cells cultured. p-EGFR Tyr1068 was determined using the AlphaScreen Surefire pEGF Receptor (Tyr1068) Assay (PerkinElmer, TGRERS). […] Subsequently, 60.000 cells/well in 60 μL were added. Cells were incubated with compound for 4 h at 37° C. […] The mixture was incubated at room temperature with shaking (700 rpm) for 20 min. After centrifugation, 4 μL of the lysate were transferred to Proxiplates. […] Plates were shaken for 1 min (1400 rpm) and incubated for 2 h at room temperature in the dark.

Chain of EGFR del19 T790M C797S (P00533 25-1210 T790M/C797S limits assumed, form open): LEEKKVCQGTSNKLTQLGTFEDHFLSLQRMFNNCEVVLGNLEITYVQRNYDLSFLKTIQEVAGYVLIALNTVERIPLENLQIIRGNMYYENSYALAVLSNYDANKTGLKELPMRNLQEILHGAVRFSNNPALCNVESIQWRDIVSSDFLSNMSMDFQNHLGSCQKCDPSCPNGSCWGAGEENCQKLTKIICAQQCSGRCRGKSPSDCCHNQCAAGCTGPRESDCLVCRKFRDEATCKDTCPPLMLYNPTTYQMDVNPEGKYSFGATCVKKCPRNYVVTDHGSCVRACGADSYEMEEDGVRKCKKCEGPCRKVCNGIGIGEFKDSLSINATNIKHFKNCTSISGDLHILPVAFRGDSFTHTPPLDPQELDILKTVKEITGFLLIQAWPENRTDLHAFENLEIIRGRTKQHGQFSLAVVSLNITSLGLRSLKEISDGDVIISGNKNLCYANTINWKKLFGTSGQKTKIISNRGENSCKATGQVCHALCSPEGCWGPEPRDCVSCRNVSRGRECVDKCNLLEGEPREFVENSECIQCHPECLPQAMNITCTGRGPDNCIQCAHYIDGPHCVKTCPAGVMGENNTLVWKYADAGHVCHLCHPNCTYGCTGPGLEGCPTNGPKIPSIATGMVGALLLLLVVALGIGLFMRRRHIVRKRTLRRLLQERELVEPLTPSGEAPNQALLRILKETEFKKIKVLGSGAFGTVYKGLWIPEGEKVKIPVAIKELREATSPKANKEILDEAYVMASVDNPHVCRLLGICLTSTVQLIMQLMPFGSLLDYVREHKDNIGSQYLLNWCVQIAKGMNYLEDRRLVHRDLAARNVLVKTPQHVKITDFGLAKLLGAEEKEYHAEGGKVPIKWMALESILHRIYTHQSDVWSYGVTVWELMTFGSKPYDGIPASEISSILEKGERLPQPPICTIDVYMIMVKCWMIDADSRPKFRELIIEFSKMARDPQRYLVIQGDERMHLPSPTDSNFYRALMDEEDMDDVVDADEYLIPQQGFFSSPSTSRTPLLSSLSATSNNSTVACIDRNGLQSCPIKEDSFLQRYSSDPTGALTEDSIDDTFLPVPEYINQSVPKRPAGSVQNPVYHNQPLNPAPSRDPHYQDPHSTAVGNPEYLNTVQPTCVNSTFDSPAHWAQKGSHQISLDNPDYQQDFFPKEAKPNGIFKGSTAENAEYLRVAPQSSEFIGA

| pIC50 | Compound |
| --- | --- |
| 8.72 | COc1cccc2c1N1C[C@H](C)CCCOc3c(cnn3C)-c3cc(cc(C)n3)C(=O)/N=C/1N2 [Compound I-041] |
| 8.77 | Cc1cc2cc(n1)-c1cnn(C)c1OC[C@@H](C)CCCN1/C(=N/C2=O)Nc2cnn(C)c21 [Compound I-040] |
| 8.12 | C[C@@H]1CCCOc2c(cnn2C)-c2cc(cc(Cl)n2)C(=O)/N=C2\Nc3cnn(C)c3N2C1 [Compound I-029] |
| 9.15 | C[C@@H]1CCCOc2c(cnn2C)-c2cc(ccn2)C(=O)/N=C2\Nc3cnn(C)c3N2C1 [Compound I-036] |
| 8.40 | Cc1cc2cc(n1)-c1cnn(C)c1OCCC[C@@H](C)CN1/C(=N/C2=O)Nc2ccc(Br)cc21 [Compound I-005] |
| 9.15 | Cc1cc2cc(n1)-c1cnn(C)c1OCCC[C@@H](C)CN1/C(=N/C2=O)Nc2ccc(CN(C)C)cc21 [Compound I-035] |
| 9.30 | C[C@@H]1CCCOc2c(cnn2C)-c2cc(cc(F)n2)C(=O)/N=C2\Nc3cn(C)nc3N2C1 [Compound I-023] |
| 9.22 | Cc1cc2cc(n1)-c1cnn(C)c1OCCC[C@@H](C)CN1/C(=N/C2=O)Nc2cn(C)nc21 [Compound I-024] |
| 8.82 | C[C@@H]1CCCOc2c(cnn2C)-c2cc(cc(Cl)n2)C(=O)/N=C2\Nc3cn(C)nc3N2C1 [Compound I-026] |
| 9.15 | C[C@@H]1CCCOc2c(cnn2C)-c2cc(cc(F)n2)C(=O)/N=C2\Nc3ccccc3N2C1 [Compound I-034] |
| 8.89 | Cc1cc2cc(n1)-c1cnn(C)c1OCCC[C@@H](C)CN1/C(=N/C2=O)Nc2ccc(C(=O)N(C)C)cc21 [Compound I-038] |
| 9.10 | Cc1cc2cc(n1)-c1cnn(C)c1OCCC[C@@H](C)CN1/C(=N/C2=O)Nc2ccccc21 [Compound I-003] |
| 8.89 | C[C@@H]1CCCOc2c(cnn2C)-c2cc(cc(C#N)n2)C(=O)/N=C2\Nc3ccccc3N2C1 [Compound I-004] |
| 8.47 | C[C@@H]1CCCOc2c(cnn2C)-c2cc(ccn2)C(=O)/N=C2\Nc3cn(C)nc3N2C1 [Compound I-044] |
| 8.64 | COC(=O)c1ccc2c(c1)N1C[C@H](C)CCCOc3c(cnn3C)-c3cc(cc(C)n3)C(=O)/N=C/1N2 [Compound I-042] |
| 7.55 | Cc1cc2cc(n1)-c1cnn(C)c1OCCC(O)CCN1/C(=N/C2=O)Nc2cnn(C)c21 (stereo not shown) [Compound I-030] |
| 9.10 | Cc1cc2cc(n1)-c1cnn(C)c1OCCC[C@@H](C)CN1/C(=N/C2=O)Nc2cnn(C)c21 [Compound I-025] |

The next lines start with the molecule.

| Compound | pIC50 |
| --- | --- |
| CC[C@@H]1CCCOc2c(cnn2C)-c2cc(cc(C)n2)C(=O)/N=C2\Nc3ccc(N4CCN(C)CC4)cc3N2C1 [Compound I-020] | 9.22 |
| Cc1cc2cc(n1)-c1cnn(C)c1OCC[C@@H](O)[C@H](C)CN1/C(=N/C2=O)Nc2ccccc21 [Compound I-045] | 8.44 |
| C[C@H]1CCCOc2ccccc2-c2cc(ccn2)C(=O)/N=C2\Nc3ccccc3N2C1 [Compound I-051] | 7.70 |
| O=C1/N=C2\Nc3ccccc3N2CCCCCOc2ccccc2-c2cc1ccn2 [Compound I-047] | 8.21 |
| Cc1cc2cc(n1)-c1cnn(C)c1OCC[C@@H]1CC[C@@H](C1)N1/C(=N/C2=O)Nc2ccccc21 [Compound I-006] | 7.77 |
| Cc1cc2cc(n1)-c1cnn(C)c1OCCC[C@@H](C)CN1/C(=N/C2=O)Nc2ccc(N3CCN(C)CC3)cc21 [Compound I-019] | 9.22 |
| Cc1cc2cc(n1)-c1ccc(F)cc1OCCCCCN1/C(=N/C2=O)Nc2ccccc21 [Compound I-056] | 7.16 |
| CC1(C)CCOc2ccccc2-c2cc(ccn2)C(=O)/N=C2\Nc3ccccc3N2CC1 [Compound I-054] | 7.60 |
| Cc1cc2cc(n1)-c1cnn(C)c1OCCC[C@@H](C)CN1/C(=N/C2=O)Nc2ccc(C(=O)N3CCN(C)CC3)cc21 [Compound I-039] | 8.80 |
| Cc1cc2cc(n1)-c1cnn(C)c1OCCCCN1/C(=N/C2=O)Nc2ccccc21 [Compound I-055] | 7.18 |
| Cc1cc2cc(n1)-c1cnn(C)c1OC[C@@H](C)CCCN1/C(=N/C2=O)Nc2cc(N3CCN(C)CC3)ccc21 [Compound I-043] | 8.64 |
| Cc1cc2cc(n1)-c1cnn(C)c1OCCC[C@H](O)CN1/C(=N/C2=O)Nc2ccccc21 [Compound I-008] | 8.13 |
| C[C@@H]1CCCOc2c(cnn2C)-c2cc(cc(Cl)n2)C(=O)/N=C2\Nc3ccc(CN4CCN(C)CC4)cc3N2C1 [Compound I-022] | 9.10 |
| Cn1ncc2c1OCCC(O)CCN1/C(=N/C(=O)c3cc(Cl)nc-2c3)Nc2ccccc21 (stereo not shown) [Compound I-012] | 8.28 |
| Cc1cc2cc(n1)-c1cnn(C)c1OCCC[C@@H](C)CN1/C(=N/C2=O)Nc2ccc(N3CCOCC3)cc21 [Compound I-032] | 9.22 |
| Cc1cc2cc(n1)-c1cnn(C)c1OC[C@@H](C)[C@@H](O)CCN1/C(=N/C2=O)Nc2ccccc21 [Compound I-017] | 8.05 |
| C[C@@H]1CCOc2ccccc2-c2cc(ccn2)C(=O)/N=C2\Nc3ccccc3N2CC1 [Compound I-048] | 7.82 |
| Cc1cc2cc(n1)-c1cnn(C)c1OCCCCCCCN1/C(=N/C2=O)Nc2ccccc21 [Compound I-052] | 7.64 |

| Compound | pIC50 |
| --- | --- |
| Cc1cc2cc(n1)-c1cnn(C)c1OCCC[C@@H](O)CN1/C(=N/C2=O)Nc2ccccc21 [Compound I-007] | 8.96 |
| Cc1cc2cc(n1)-c1cnn(C)c1OCC[C@H](O)[C@@H](C)CN1/C(=N/C2=O)Nc2ccccc21 [Compound I-015] | 9.22 |
| Cc1cc2cc(n1)-c1cnn(C)c1OC[C@@H](O)C[C@@H](C)CN1/C(=N/C2=O)Nc2ccccc21 [Compound I-013] | 9.15 |
| Cc1cc2cc(n1)-c1cnn(C)c1OCCCCCCN1/C(=N/C2=O)Nc2ccccc21 [Compound I-002] | 8.38 |
| Cc1cc2cc(n1)-c1cnn(C)c1OCCC(O)CCN1/C(=N/C2=O)Nc2ccccc21 (stereo not shown) [Compound I-010] | 8.92 |
| Cc1cc2cc(n1)-c1cnn(C)c1OC[C@@H](C)[C@H](O)CCN1/C(=N/C2=O)Nc2ccccc21 [Compound I-016] | 9.10 |
| O=C1/N=C2\Nc3ccccc3N2CCCCCOc2cc(F)ccc2-c2cc1ccn2 [Compound I-053] | 7.62 |
| Cc1cc2cc(n1)-c1cnn(C)c1OCC[C@@H](O)CCN1/C(=N/C2=O)Nc2ccccc21 [Compound I-011] | 8.19 |
| Cc1cc2cc(n1)-c1cnn(C)c1OCCCCCN1/C(=N/C2=O)Nc2ccccc21 [Compound I-001] | 8.92 |
| CC1(C)CCCOc2ccccc2-c2cc(ccn2)C(=O)/N=C2\Nc3ccccc3N2C1 [Compound I-050] | 7.77 |
| Cc1cc2cc(n1)-c1cnn(C)c1OC[C@H](O)C[C@@H](C)CN1/C(=N/C2=O)Nc2ccccc21 [Compound I-014] | 8.38 |
| Cc1cc2cc(n1)-c1cnn(C)c1OCCC[C@@H](C)CN1/C(=N/C2=O)Nc2cc(N3CCN(C)CC3)ccc21 [Compound I-033] | 9.22 |
| Cc1cc2cc(n1)-c1cnn(C)c1OC[C@@H](C)CCCN1/C(=N/C2=O)Nc2ccc(N3CCN(C)CC3)cc21 [Compound I-031] | 9.30 |
| C[C@@H]1C[C@H](O)COc2c(cnn2C)-c2cc(cc(Cl)n2)C(=O)/N=C2\Nc3cn(C)nc3N2C1 [Compound I-028] | 8.46 |
| Cc1cc2cc(n1)-c1cnn(C)c1OCC[C@H](O)CCN1/C(=N/C2=O)Nc2ccccc21 [Compound I-009] | 9.00 |
| Cc1cc2cc(n1)-c1cnn(C)c1OCCC[C@@H](C)CN1/C(=N/C2=O)Nc2ccc(OCCN3CCN(C)CC3)cc21 [Compound I-018] | 9.30 |
| Cc1cc2cc(n1)-c1ccccc1OCCCCCN1/C(=N/C2=O)Nc2ccccc21 [Compound I-049] | 7.80 |

Biological target: EGFR (mutated) 695-1022, T790M, C797S, L858R (Homo sapiens (Human), UniProt P00533, C797S/L858R/T790M)
Test: Biochemical EGFR inhibition assay (poly-GT substrate phosphorylation, TR-FRET LANCE Ultra)
Details: 100 μM ATP; read-out: LR_TM_CS (100 μM ATP)
Protocol: (§1) Initially, the inhibitory effect of compounds according to the invention is measured in biochemical assays which measure the phosphorylation activity of EGFR enzyme forms on poly-GT substrate in the presence of different concentrations of ATP (5 μM and 100 μM final assay concentration).
(§2) The following enzyme forms of EGFR are representative examples that can be used in these assays at the given concentrations:
(§3) For the chosen highest assay concentration of 100 μM, 150 nL of compound solution is transferred from a 10 mM DMSO compound stock solution. A series of eleven fivefold dilutions per compound is transferred to the assay plate, compound dilutions are tested in duplicates. DMSO is added as backfill to a total volume of 150 nL. The assay runs on a fully automated robotic system.
(§4) 5 μL of EGFR enzyme form in assay buffer (50 mM HEPES pH 7.3, 10 mM MgCl2, 1 mM EGTA, 0.01% Tween 20, 2 mM DTT) are dispensed into columns 1-23, than 5 μL of ATP and ULight-poly-GT substrate (PerkinElmer; TRF0100-M) mix in assay buffer is added to all wells (final assay concentration of the ULight-poly-GT substrate 200 nM). Each of the different EGFR enzyme form assays is available at low ATP (final assay concentration 5 μM) and high ATP levels (final assay concentration 100 μM). After 90 minutes incubation at room temperature 5 μL EDTA (final assay concentration 50 mM) and LANCE Eu-anti-P-Tyr (PT66) antibody (PerkinElmer, AD0069) (final assay concentration 6 nM) mix are added to stop the reaction and start the binding of the antibody. […] Each plate contains 16 wells of a negative control (diluted DMSO instead of test compound; w EGFR enzyme form; column 23) and 16 wells of a positive control (diluted DMSO instead of test compound; w/o EGFR enzyme form; column 24). Negative and positive control values are used for normalization and IC50 values are calculated and analysed using a 4 parametric logistic model.
(§5) These biochemical EGFR enzyme form compound dose-response assays quantify the kinase activity via phosphorylation of a tagged poly-GT substrate. The results of the assay are provided as IC50 values.

Chain of EGFR (mutated) 695-1022, T790M, C797S, L858R (P00533 695-1022 T790M/C797S/L858R): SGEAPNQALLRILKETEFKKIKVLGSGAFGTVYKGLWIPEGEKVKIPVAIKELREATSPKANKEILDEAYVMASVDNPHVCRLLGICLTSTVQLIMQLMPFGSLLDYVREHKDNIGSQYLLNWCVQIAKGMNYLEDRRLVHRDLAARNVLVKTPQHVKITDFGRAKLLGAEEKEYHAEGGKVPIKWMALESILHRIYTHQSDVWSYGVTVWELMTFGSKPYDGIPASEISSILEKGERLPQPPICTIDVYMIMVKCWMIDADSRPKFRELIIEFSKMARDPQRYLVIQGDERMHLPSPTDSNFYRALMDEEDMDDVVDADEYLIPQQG

| pIC50 | Compound |
| --- | --- |
| 7.80 | Cc1cc2cc(n1)-c1cnn(C)c1OCCC[C@@H](C)CN1/C(=N/C2=O)Nc2ccc(Br)cc21 [Compound I-005] |
| 8.52 | Cc1cc2cc(n1)-c1cnn(C)c1OCCC[C@@H](C)CN1/C(=N/C2=O)Nc2ccccc21 [Compound I-003] |
| 8.22 | Cc1cc2cc(n1)-c1cnn(C)c1OCCCCCN1/C(=N/C2=O)Nc2ccccc21 [Compound I-001] |

Biological target: EGFR wt (Homo sapiens (Human), UniProt P00533)
Test: as above
Details: 100 μM ATP; read-out: wt (100 μM ATP)
Protocol: as §1, §2, §3, §4, §5

Chain of EGFR wt (P00533 25-1210): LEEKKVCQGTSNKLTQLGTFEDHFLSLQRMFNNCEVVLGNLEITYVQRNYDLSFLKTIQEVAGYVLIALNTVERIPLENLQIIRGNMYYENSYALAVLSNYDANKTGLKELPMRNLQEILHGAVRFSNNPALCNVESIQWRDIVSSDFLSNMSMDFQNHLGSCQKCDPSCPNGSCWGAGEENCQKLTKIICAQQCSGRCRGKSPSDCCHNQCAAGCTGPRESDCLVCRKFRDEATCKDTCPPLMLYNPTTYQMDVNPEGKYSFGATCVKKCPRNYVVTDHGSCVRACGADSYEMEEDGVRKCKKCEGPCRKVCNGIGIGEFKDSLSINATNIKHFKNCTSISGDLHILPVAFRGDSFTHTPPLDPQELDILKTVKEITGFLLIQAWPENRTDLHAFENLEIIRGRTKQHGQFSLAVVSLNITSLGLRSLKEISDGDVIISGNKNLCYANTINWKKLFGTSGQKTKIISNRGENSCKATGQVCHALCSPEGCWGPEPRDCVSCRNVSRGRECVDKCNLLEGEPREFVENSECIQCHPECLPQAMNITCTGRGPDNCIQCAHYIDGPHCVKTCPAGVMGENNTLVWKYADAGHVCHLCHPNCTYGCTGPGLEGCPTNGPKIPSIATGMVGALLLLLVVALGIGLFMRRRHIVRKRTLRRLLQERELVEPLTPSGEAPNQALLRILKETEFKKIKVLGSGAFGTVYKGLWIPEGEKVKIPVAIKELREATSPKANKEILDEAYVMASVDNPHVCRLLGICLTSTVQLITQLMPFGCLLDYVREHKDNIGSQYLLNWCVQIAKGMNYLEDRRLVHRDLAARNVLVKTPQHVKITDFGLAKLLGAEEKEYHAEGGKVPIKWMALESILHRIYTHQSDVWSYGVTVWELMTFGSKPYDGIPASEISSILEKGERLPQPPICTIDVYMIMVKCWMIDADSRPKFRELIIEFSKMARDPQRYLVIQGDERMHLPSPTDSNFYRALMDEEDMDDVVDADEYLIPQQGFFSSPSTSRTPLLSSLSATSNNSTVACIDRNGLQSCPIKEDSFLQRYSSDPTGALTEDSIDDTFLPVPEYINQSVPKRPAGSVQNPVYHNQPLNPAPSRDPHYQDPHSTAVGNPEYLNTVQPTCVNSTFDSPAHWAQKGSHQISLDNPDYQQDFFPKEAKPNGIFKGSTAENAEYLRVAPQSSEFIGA

| pIC50 | Compound |
| --- | --- |
| < 4.00 | Cc1cc2cc(n1)-c1cnn(C)c1OCCC[C@@H](C)CN1/C(=N/C2=O)Nc2ccc(Br)cc21 [Compound I-005] |
| 6.05 | Cc1cc2cc(n1)-c1cnn(C)c1OCCC[C@@H](C)CN1/C(=N/C2=O)Nc2ccccc21 [Compound I-003] |
| < 4.00 | Cc1cc2cc(n1)-c1cnn(C)c1OCCCCCN1/C(=N/C2=O)Nc2ccccc21 [Compound I-001] |
